Entries after “also recorded” stand apart in the source; their conditions may differ.
Tested on: Reserpine-Induced Tardive Dyskinesia in Mice
Assay: Reserpine-induced tardive dyskinesia in mice, vacuous chewing movements (VCM) count
Type: in vivo
Conditions: for VCM frequency per 10 min. Mean ± S.E.M.: 1 hour post-administration, male CD1 mice
Procedure: Male CD1 mice (Charles River Laboratories, France), about 3 month-old were used. During the acclimatization period, animals were housed 5 per cage, in Makrolon type IlIl cages, in the animal room (temperature: 20±2° C., humidity: minimum 45%, air changes: >12 per hour, light/dark cycle of 12 h/12 h [on at 7:00 A.M:]. Animals were allowed a minimum of 5 days period before experiment for acclimatization.
Reserpine (Sigma) was dissolved in glacial acetic acid, diluted in water and administered s.c. at 1 mg/kg. 2 injections were given separated by 48 h. SPM 927 was studied at 3 doses (3, 10 and 30 mg/kg; i.p.) given as a single injection. Clonazepam was administered at 1 mg/kg, i.p. (3).
Reserpine was given twice (Day 1 and Day 3) and SPM 927 was administered 24 h after the last injection of reserpine (Day 4). Behavioral assessment was carried out 1 hour after drug injection (for 10 min). For the behavioral assessment, animals were placed in a plexiglass cage and after 5 min period of habituation, vacuous chewing movements (VCM) were counted for 10 min. VCM occurring during a grooming period were not taken into account.
Results are expressed as means±S.E.M.s of ten individual values. Statistical analyses was done with ANOVA (one way) and Dunnett's t-test. Significance was considered as p<0.05.

SMILES: COC[C@@H](NC(C)=O)C(=O)NCc1ccccc1 [SPM 927, (R)-2-acetamide-N-benzyl-3-methoxypropionamide]
- effect on reserpine-induced dyskinesia (in words) (3 mg/kg i.p., lowest dose): little or no effect
- effect on number of vacuous chewing movements (in words) (10 mg/kg i.p.): reduced the number of vacuous chewing movements
- effect on number of vacuous chewing movements (in words) (30 mg/kg i.p., highest dose, statistically significant (p<0.05 versus vehicle group)): reduced the number of vacuous chewing movements
- VCM frequency per 10 min. Mean ± S.E.M. (Reserpine 1 mg/kg s.c. + SPM 927 3 mg/kg i.p., reserpine + vehicle group 41.4 ± 6.4): 48.6 ± 10.6 per 10 min
- VCM frequency per 10 min. Mean ± S.E.M. (Reserpine 1 mg/kg s.c. + SPM 927 10 mg/kg i.p., reserpine + vehicle group 41.4 ± 6.4): 26.6 ± 5.7 per 10 min
- VCM frequency per 10 min. Mean ± S.E.M. (Reserpine 1 mg/kg s.c. + SPM 927 30 mg/kg i.p., p < 0.05 versus reserpine + vehicle group (41.4 ± 6.4)): 23.9 ± 7.9 per 10 min
- overall effect on reserpine-induced tardive dyskinesia / vacuous chewing movements (in words) (mice, no dose stated): attenuates reserpine induced vacuous chewing movements; also recorded: significant efficacy in reducing tardive dyskinesia

— patent US7416864B2, “Method for treating dyskinesia” (Schwarz Pharma AG, priority 2004, dated 2008)
